Reference: article PMC10363607, “Identification of novel and potent dual-targeting HDAC1/SPOP inhibitors using structure-based virtual screening, molecular dynamics simulation and evaluation of in vitro and in vivo antitumor activity” (Frontiers in Pharmacology, 2023)
Entries after “also recorded” stand apart in the source; their conditions may differ. Read-outs that look alike come from different tables or passages of the source.

Experiments:
HDAC1 = molecular target: T1, HDAC1 (Homo sapiens, UniProt Q13547); experiment: In vitro HDAC1 inhibition, fluorescent substrate Boc-Lys(acetyl)-AMC; type: biochemical
T1 construct: purchased Abcam
T1 sequence (Q13547 whole entry): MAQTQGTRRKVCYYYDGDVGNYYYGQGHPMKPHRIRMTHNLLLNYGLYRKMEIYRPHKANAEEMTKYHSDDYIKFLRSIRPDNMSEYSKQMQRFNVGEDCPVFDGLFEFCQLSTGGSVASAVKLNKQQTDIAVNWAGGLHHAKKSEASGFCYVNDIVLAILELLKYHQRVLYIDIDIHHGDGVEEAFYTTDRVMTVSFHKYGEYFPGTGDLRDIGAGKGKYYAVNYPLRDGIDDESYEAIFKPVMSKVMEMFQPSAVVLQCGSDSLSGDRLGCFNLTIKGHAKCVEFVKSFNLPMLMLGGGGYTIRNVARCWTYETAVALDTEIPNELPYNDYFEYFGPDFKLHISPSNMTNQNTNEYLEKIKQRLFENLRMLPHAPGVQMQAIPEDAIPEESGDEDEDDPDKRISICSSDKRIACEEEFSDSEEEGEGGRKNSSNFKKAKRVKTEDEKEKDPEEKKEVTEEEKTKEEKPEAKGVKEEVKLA
Description: In the 96-well plates, different concentrations of the tested compound (50 μL) were added to 10 μl of HDAC1 enzyme solution. After incubation at 37°C for 5 min, 40 μl of the fluorescent substrate Boc-Lys (acetyl)-AMC was then added to the mixture. The plates were incubated at 37°C for 0.5 h, and the developer (100 μl) containing trypsin and TSA was added to the mixture. Finally, the fluorescence intensity at wavelengths of 390 nm and 460 nm was measured 20 min later by a microplate reader (Perkin Elemer).
(§1) All experiments were performed in triplicate. Competition binding data were analyzed using GraphPad Prism 6.0 software (GraphPad Software Inc, San Diego, CA) and the inhibition constants (IC50) were calculated by nonlinear curve fitting.

SPOP = molecular target: T2, SPOP (Homo sapiens, UniProt O43791); experiment: SPOP fluorescence polarization (FP) competition assay with FITC-puc_SBC1; type: binding
T2 construct: purchased Abcam
T2 sequence (O43791 23-337): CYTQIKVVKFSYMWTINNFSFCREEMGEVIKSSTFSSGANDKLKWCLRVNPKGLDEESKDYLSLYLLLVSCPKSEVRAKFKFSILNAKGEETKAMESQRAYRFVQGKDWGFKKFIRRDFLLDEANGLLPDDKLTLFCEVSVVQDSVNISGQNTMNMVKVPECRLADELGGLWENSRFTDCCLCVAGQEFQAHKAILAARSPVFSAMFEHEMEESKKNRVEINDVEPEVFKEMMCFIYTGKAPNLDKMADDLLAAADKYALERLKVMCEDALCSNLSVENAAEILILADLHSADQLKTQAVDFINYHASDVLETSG
Description: The enzymatic activity of SPOP was determined by a previously described fluorescence polarization (FP) assay ([Guo et al., 2016]). FITC-labeled peptide substrate puc_SBC1 (FITC-puc_SBC1, FITC-[…]) was purchased (GL Biochem Ltd, Shanghai). Serial dilutions of competitors for SPOP23-337 were prepared from the 20 mM DMSO stocks. The diluted compound was added to the reaction mixture in 100 μl of HEPES (25 mM, pH 7.5) containing 10 μM SPOP and 50 nM FITC-puc_SBC1. After incubation for 1 h at 4°C, FP was measured on a microplate reader (Perkin Elemer) using the wavelengths of 480 nm for excitation and 535 nm for emission, respectively.
as §1

[1] = test system: SPOP and HDAC levels in HCT-116 cells; experiment: Western blot of SPOP and HDAC levels in HCT-116 cells; type: cell-based; conditions: HCT-116 cells, 0, 0.5 and 2 μM, 72 h
Description: (§2) The tumor cells (10^6 cells/well) were seeded onto 6-well plates and allowed to culture for 24 h. The cells were incubated with various concentrations (0, 0.5 and 2 μM) of HS-2 at 37°C for 72 h. Tumor cells were washed and lysed with RIPA. Protein samples were detected by western blot as described previously ([Zheng et al., 2021]).

HCT-116 tumor cells = experiment: In vivo anticancer activity, HCT-116 xenograft; conditions: six times; for tumor volume versus control group: HCT-116 xenograft, nude mice
Description: According to the previously reported in vivo inhibition method, we injected HCT-116 tumor cells (200 μl, 1 × 10^7 cells) into the right subcutaneous space of 6-week-old BALB/c nude mice (Experimental Animal Center of Yangzhou University (Yangzhou, China) ([Zheng et al., 2021]). All experimental protocols were approved by the Animal Ethics Committee of China Pharmaceutical University. When the tumors grew to 90–120 mm^3, the mice were randomly divided into three groups (five mice per group) and intraperitoneally administered with vehicle (PBS buffer pH 7.4, volume capacity: 0.2 ml), compound HS-2 (volume capacity: 0.2 ml in PBS vehicle, 5 mg/kg), and compound HS-2 (volume capacity: 0.2 ml in PBS vehicle, 10 mg/kg) every 3 days for a total of six times. Tumor volume and weight were measured every 3 days. Tumor volume was calculated using the formula (c × c × d)/2 (c, the smallest diameter; d, the largest diameter).

OS-RC-2 cell = experiment: MTT cell growth inhibition, OS-RC-2; type: cell-based; conditions: read-out: OS-RC-2 cell proliferation IC50
Description: (§3) According to the previously reported method ([Namwan et al., 2022]; [Zhao et al., 2023]), at a concentration of 5 × 10^4/ml, cell lines were planted in 96-well plates and cultivated for an entire night. The cells were incubated at 37 °C for 72 h while being exposed to various inhibitor concentrations. And then, MTT stock solution (5 mg/ml) was added to each well and incubated for an additional 4 h. Dimethyl sulfoxide (DMSO) was used to dissolve the insoluble crystals, and a microplate reader was used to detect absorbance at 570 nm. Survival ratio (%) was calculated using the following equation: survival ratio (%) = (A treatment /A control ) × 100%. Data were analyzed using the analysis software GraphPad Prism 6.0 software (GraphPad Software Inc., San Diego, CA), and the half-maximal inhibitory concentration (IC50) values were calculated by the dose-response curve visualized using nonlinear regression (curve fit).

[2] = test system: SPOP and HDAC levels in A498 cells; experiment: Western blot of SPOP and HDAC levels in A498 cells; type: cell-based; conditions: A498 cells, 0, 0.5 and 2 μM, 72 h
Description: as §2

769-P cell = experiment: MTT cell growth inhibition, 769-P; type: cell-based; conditions: 72 h, read-out: 769-P cell proliferation IC50
Description: as §3

[3] = FP, 10 μM SPOP, 50 nM FITC-puc_SBC1, triplicate
[4] = 5 and 10 mg/kg intraperitoneally every 3 days

Structure (SMILES): Cc1cccn2c(=O)c3cc(ONCCCCCC(=O)NO)c(=N)n(CCc4cccs4)c3nc12 [HS-1]
- IC50 (HDAC1; triplicate): 0.0137 ± 0.0011 µM
- IC50 (SPOP; [3]): 18.3 ± 2.5 µM

Structure (SMILES): Cc1cccn2c(=O)c3cc(ONCCCCCC(=O)NO)c(=N)n(CCc4ccc(C(F)(F)F)cc4)c3nc12 [HS-2]
- IC50 (HDAC1; triplicate): 0.0076 ± 0.0004 µM
- HDAC1 inhibitory effect relative to Vorinostat (IC50 ratio) (HDAC1; versus positive control Vorinostat): about 1.1 times
- HDAC level (western blot) [1]: reduced
- SPOP level (western blot) [1]: reduced
- tumor volume versus control group (HCT-116 tumor cells; 5 mg/kg intraperitoneally every 3 days): significantly less tumor volume than the control group
- tumor volume versus control group (HCT-116 tumor cells; 10 mg/kg intraperitoneally every 3 days): significantly less tumor volume than the control group
- body weight of mice (HCT-116 tumor cells; [4]): no significant differences
- toxicity in vivo (HCT-116 tumor cells; [4]): no significant toxicity
- IC50 (OS-RC-2 cell; 72 h): 9.3 ± 1.7 µM
- IC50 (OS-RC-2 cell; Homo sapiens, OS-RC-2, 72 h): < 10 µM
- HDAC level (western blot) [2]: reduced
- SPOP level (western blot) [2]: reduced
- IC50 (SPOP; [3]): 9.1 ± 0.7 µM
- SPOP inhibitory effect relative to SPOP-IN-6b (IC50 ratio) (SPOP; versus positive control SPOP-IN-6b): ~3.8 times
- IC50 (769-P cell): 5.2 ± 1.1 µM
- IC50 (769-P cell; Homo sapiens, 769-P): < 10 µM

Structure (SMILES): Cc1cccn2c(=O)c3cc(ONCCCCCC(=O)NO)c(=N)n(CCc4ccc(Cl)c(F)c4)c3nc12 [HS-3]
- IC50 (HDAC1; triplicate): 0.0115 ± 0.0013 µM
- IC50 (SPOP; [3]): 14.9 ± 1.2 µM

Structure (SMILES): CCN(CC)CCn1c(=N)c(ONCCCCCC(=O)NO)cc2c(=O)n3cccc(C)c3nc21 [HS-4]
- IC50 (HDAC1; triplicate): 0.0184 ± 0.0019 µM
- IC50 (SPOP; [3]): 23.2 ± 2.7 µM

Structure (SMILES): Cc1cccn2c(=O)c3cc(C(=O)NCCCN4CCOCC4)c(=N)n(CCc4ccccc4)c3nc12 [SPOP-IN-6b, reference compound]
- HDAC1 (IC50, nM) (HDAC1; triplicate): without an inhibitory effect on HDAC1; also recorded: no binding
- IC50 (SPOP; [3]): 34.6 ± 3.1 µM

Structure (SMILES): O=C(CCCCCCC(=O)Nc1ccccc1)NO [Vorinostat, reference compound]
- SPOP (IC50, μM) (SPOP; [3]): without affecting SPOP activity; also recorded: no binding
